# Experiments:
# [1] = tested on: Klebsiella pneumoniae; assay: Antimicrobial activity against Klebsiella pneumoniae isolate M1 harboring qnrB19 gene by agar dilution method; type: functional
# [2] = tested on: Klebsiella oxytoca; assay: Antimicrobial activity against Klebsiella oxytoca isolate M2 harboring qnrS1 gene by agar dilution method; type: functional
# [3] = tested on: Klebsiella pneumoniae; assay: Antimicrobial activity against Klebsiella pneumoniae isolate Y1 harboring qnrB19 gene by agar dilution method; type: functional
# [4] = tested on: Klebsiella pneumoniae; assay: Antimicrobial activity against Klebsiella pneumoniae isolate C2 harboring qnrS1 gene by agar dilution method; type: functional
# [5] = tested on: Klebsiella pneumoniae; assay: microbe, parasite or virus in culture; settings: isolate M2
# Description: Antimicrobial activity against Klebsiella pneumoniae isolate M2 harboring qnrS1 gene by agar dilution method
# [6] = tested on: Citrobacter freundii; assay: Antimicrobial activity against Citrobacter freundii clinical isolate assessed as resistant isolate; type: functional
# [7] = tested on: Escherichia coli; assay: Antimicrobial activity against qnrB-positive Escherichia coli clinical isolate assessed as susceptible isolate; type: functional
# [8] = tested on: Klebsiella oxytoca; assay: Antimicrobial activity against Klebsiella oxytoca clinical isolate assessed as susceptible isolate; type: functional; settings: pooled result: one value given for 4 cell lines, strains, targets or settings
# [9] = tested on: Escherichia hermannii; assay: Antimicrobial activity against Escherichia hermannii clinical isolate assessed as resistant isolate; type: functional, Atlantibacter hermannii
# [10] = tested on: Escherichia hermannii; assay: Antimicrobial activity against Escherichia hermannii clinical isolate by agar dilution method; type: functional; settings: Atlantibacter hermannii
# [11] = tested on: Escherichia coli; assay: Antimicrobial activity against qnrB/S-positive Escherichia coli clinical isolate assessed as susceptible isolate; type: functional
# [12] = tested on: Escherichia hermannii; assay: Antimicrobial activity against Escherichia hermannii isolate C1 harboring qnrB19 gene by agar dilution method; type: functional; settings: Atlantibacter hermannii
# [13] = tested on: Klebsiella oxytoca; assay: Antimicrobial activity against Klebsiella oxytoca clinical isolate assessed as resistant isolate; type: functional
# [14] = tested on: Klebsiella pneumoniae; assay: Antimicrobial activity against qnrS-positive Klebsiella pneumoniae clinical isolate assessed as resistant isolate; type: functional
# [15] = tested on: Escherichia coli; assay: Antimicrobial activity against qnrS-positive Escherichia coli clinical isolate assessed as resistant isolate; type: functional
# [16] = tested on: Klebsiella pneumoniae; assay: Antimicrobial activity against qnrB-positive Klebsiella pneumoniae clinical isolate assessed as susceptible isolate; type: functional
# [17] = tested on: Enterobacter cloacae; assay: Antimicrobial activity against Enterobacter cloacae clinical isolate by agar dilution method; type: functional
# [18] = tested on: Citrobacter freundii; assay: Antimicrobial activity against Citrobacter freundii clinical isolate by agar dilution method; type: functional
# [19] = tested on: Enterobacter cloacae; assay: Antimicrobial activity against Enterobacter cloacae clinical isolate assessed as resistant isolate; type: functional
# [20] = tested on: Escherichia coli; assay: Antimicrobial activity against qnrB-positive Escherichia coli clinical isolate by agar dilution method; type: functional
# [21] = tested on: Citrobacter freundii; assay: Antimicrobial activity against Citrobacter freundii isolate V1 harboring qnrB10 gene by agar dilution method; type: functional
# [22] = tested on: Klebsiella pneumoniae; assay: Antimicrobial activity against qnrS-positive Klebsiella pneumoniae clinical isolate assessed as susceptible isolate; type: functional
# [23] = tested on: Enterobacter cloacae; assay: Antimicrobial activity against Enterobacter cloacae isolate V1 harboring qnrB2 gene by agar dilution method; type: functional
# [24] = tested on: Escherichia coli; assay: Antimicrobial activity against Escherichia coli isolate M3 harboring qnrS1 gene by agar dilution method; type: functional
# [25] = tested on: Klebsiella oxytoca; assay: Antimicrobial activity against Klebsiella oxytoca clinical isolate by agar dilution method; type: functional
# [26] = tested on: Escherichia coli; assay: Antimicrobial activity against qnrB/S-positive Escherichia coli clinical isolate assessed as resistant isolate; type: functional
# [27] = tested on: Klebsiella pneumoniae; assay: Antimicrobial activity against Klebsiella pneumoniae isolate Y2 harboring qnrS1 gene by agar dilution method; type: functional
# [28] = tested on: Escherichia coli; assay: Antimicrobial activity against qnrB-positive Escherichia coli clinical isolate assessed as resistant isolate; type: functional
# [29] = tested on: Klebsiella pneumoniae; assay: Antimicrobial activity against Klebsiella pneumoniae isolate V2 harboring qnrS1 gene by agar dilution method; type: functional
# [30] = tested on: Klebsiella oxytoca; assay: Antimicrobial activity against Klebsiella oxytoca isolate M1 harboring qnrB19 gene by agar dilution method; type: functional
# [31] = tested on: Escherichia coli; assay: Antimicrobial activity against qnrS-positive Escherichia coli clinical isolate assessed as susceptible isolate; type: functional
# [32] = tested on: Klebsiella pneumoniae; assay: Antimicrobial activity against qnrB-positive Klebsiella pneumoniae clinical isolate assessed as resistant isolate; type: functional
# [33] = tested on: Escherichia coli; assay: Antimicrobial activity against qnrB/S-positive Escherichia coli clinical isolate by agar dilution method; type: functional
# [34] = tested on: Escherichia coli; assay: Antimicrobial activity against Escherichia coli isolate Y3 harboring qnrS1 gene by agar dilution method; type: functional
# [35] = tested on: Escherichia coli; assay: Antimicrobial activity against Escherichia coli isolate C1 harboring qnrB19 gene by agar dilution method; type: functional
# [36] = tested on: Escherichia coli; assay: Antimicrobial activity against qnrS-positive Escherichia coli clinical isolate by agar dilution method; type: functional
# [37] = tested on: Escherichia coli; assay: Antimicrobial activity against Escherichia coli isolate Y2 harboring qnrS1 gene by agar dilution method; type: functional
# [38] = tested on: Klebsiella pneumoniae; assay: Antimicrobial activity against qnrS-positive Klebsiella pneumoniae clinical isolate by agar dilution method; type: functional
# [39] = tested on: Escherichia coli; assay: Antimicrobial activity against Escherichia coli isolate M2 harboring qnrS1 gene by agar dilution method; type: functional
# [40] = tested on: Escherichia coli; assay: Antimicrobial activity against Escherichia coli isolate M1 harboring qnrB19 gene by agar dilution method; type: functional
# [41] = tested on: Klebsiella pneumoniae; assay: microbe, parasite or virus in culture; settings: isolate V1
# Description: Antimicrobial activity against Klebsiella pneumoniae isolate V1 harboring qnrB2 gene by agar dilution method
# [42] = tested on: Escherichia coli; assay: Antimicrobial activity against Escherichia coli isolate Y1 harboring qnrB19 gene by agar dilution method; type: functional
# [43] = tested on: Escherichia coli; assay: Antimicrobial activity against Escherichia coli isolate V1 harboring qnrB19 gene by agar dilution method; type: functional
# [44] = tested on: Klebsiella pneumoniae; assay: Antimicrobial activity against qnrB-positive Klebsiella pneumoniae clinical isolate by agar dilution method; type: functional
structure (smiles),measurement,setting,value
O=C(O)c1cn(C2CC2)c2cc(N3CCNCC3)c(F)cc2c1=O [CIPROFLOXACIN],MIC,[1],2 µg/mL
same,MIC,[2],4 µg/mL
same,MIC,[3],2 µg/mL
same,MIC,[4],2 µg/mL
same,MIC,[5],4 µg/mL
C[C@H]1COc2c(N3CCN(C)CC3)c(F)cc3c(=O)c(C(=O)O)cn1c23.C[C@H]1COc2c(N3CCN(C)CC3)c(F)cc3c(=O)c(C(=O)O)cn1c23.O [LEVOFLOXACIN],Activity,[6],0%
same,Activity,[7],79%
same,Activity,[8],71%
same,Activity,[9],0%
same,MIC,[10],0.25 µg/mL
same,Activity,[11],100%
same,MIC,[12],0.25 µg/mL
same,Activity,[13],0%
same,Activity,[14],13%
same,Activity,[15],0%
same,MIC,[1],2 µg/mL
same,Activity,[16],100%
same,MIC,[2],4 µg/mL
same,MIC,[17],0.25 µg/mL
same,MIC,[18],0.25 µg/mL
same,Activity,[19],0%
same,MIC50,[20],1 µg/mL
same,MIC90,[20],4 µg/mL
same,MIC,[21],0.5 µg/mL
same,Activity,[22],87%
same,MIC,[23],2 µg/mL
same,MIC,[24],2 µg/mL
same,MIC,[4],2 µg/mL
same,MIC,[25],0.25 µg/mL
same,Activity,[26],0%
same,MIC,[27],2 µg/mL
same,Activity,[28],4%
same,MIC,[29],2 µg/mL
same,MIC,[30],0.5 µg/mL
same,Activity,[31],100%
same,Activity,[32],0%
CCn1cc(C(=O)O)c(=O)c2ccc(C)nc21 [NALIDIXIC ACID],Activity,[6],57%
same,Activity,[7],13%
same,Activity,[8],43%
same,MIC,[33],16 µg/mL
same,Activity,[9],57%
same,MIC,[10],16 µg/mL
same,Activity,[11],50%
same,MIC,[12],32 µg/mL
same,Activity,[13],57%
same,Activity,[14],87%
same,Activity,[15],0%
same,MIC,[1],32 µg/mL
same,MIC,[34],16 µg/mL
same,Activity,[16],20%
same,MIC,[35],32 µg/mL
same,MIC,[2],> 128 µg/mL
same,MIC,[17],16 µg/mL
same,MIC,[18],16 µg/mL
same,Activity,[19],57%
same,MIC,[36],16 µg/mL
same,MIC50,[20],32 µg/mL
same,MIC90,[20],> 128 µg/mL
same,MIC,[37],16 µg/mL
same,MIC,[21],16 µg/mL
same,MIC,[38],16 µg/mL
same,Activity,[22],13%
same,MIC,[23],32 µg/mL
same,MIC,[3],64 µg/mL
same,MIC,[24],32 µg/mL
same,MIC,[39],16 µg/mL
same,MIC,[4],32 µg/mL
same,MIC,[25],16 µg/mL
same,Activity,[26],50%
same,MIC,[27],32 µg/mL
same,Activity,[28],87%
same,MIC,[29],16 µg/mL
same,MIC,[40],16 µg/mL
same,MIC,[30],16 µg/mL
same,MIC,[41],32 µg/mL
same,MIC,[42],32 µg/mL
same,MIC,[43],32 µg/mL
same,Activity,[31],100%
same,MIC,[44],16 µg/mL
same,Activity,[32],80%
same,MIC,[5],32 µg/mL

# Reference: ChEMBL document CHEMBL1649485, “High prevalence of qnr genes in commensal enterobacteria from healthy children in Peru and Bolivia” (2009)
